This note sets out measurements from patent US10501479B2, “Benzenesulfonyl-asymmetric ureas and medical uses thereof” (HELSINN HEALTHCARE SA, priority 2016, dated 2019).

pEC50, pIC50: −log10 of the molar value. Like-named read-outs stand apart in the source and are kept apart here.

Data set [1] deals with T1, recombinant human ghrelin receptor (HEK293/GRLN) (Homo sapiens, UniProt Q92847).
T1 construct: expressed in transfected cells
Briefly: Ghrelin inverse agonist potency (EC50) with IP-1 (IP-One HTRF) assay. In kind it is cell-based. The settings on record: IP-1 assay. The method in brief: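 HEK293/GRLN cells were seeded 18-22 hours before the test, then exposed to compound in stimulation buffer for 1 hour at 37° C, 5% CO2. IP-1 was detected by IP-One HTRF (IP1-d2 plus Tb-cryptate, 1 hour RT), reading 620 and 665 nm; the inverse agonist EC50 was derived from this.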

For data set [2], the target named is T2, GHSR-1a (HEK293/GHSR1a cell line) (Homo sapiens, UniProt Q92847).
T2 construct: expressed in transfected cells; host or cells: HEK293/GHSR1a cell line
Put plainly: Ghrelin agonist potency (EC50) with calcium FLIPR assay. In kind it is cell-based. A digest of the protocol: (§1)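 HEK293/GHSR1a cells, seeded 24 hr ahead and loaded with calcium dye 30-60 min, were read by FLIPR fluorescence for 2 min after addition at t=20 sec. Agonism: compound alone, EC50 from dose-response. Antagonism: compound plus 10 nM ghrelin, IC50 from reduction of ghrelin response.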

For data set [3], the target named is T2, GHSR-1a (HEK293/GHSR1a cell line). Put plainly: Ghrelin antagonist potency (IC50) with calcium FLIPR assay, ghrelin 10 nM. It counts as cell-based. A digest of the protocol: as §1
Data set [4] in a line: Metabolic stability in human liver microsomes. In kind it is in vitro ADME. A digest of the protocol:
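Compound incubated with human, dog, rat or mouse liver microsomes in 100 mM potassium phosphate, pH 7.4, at 37 °C. Reaction started with an NADPH regenerating system. Samples quenched at 0, 10, 30 and 90 min, and remaining compound measured by LC-MS/MS.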
In general terms: Liver microsomes are vesicles of endoplasmic reticulum, rich in cytochrome P450 enzymes.

The nature of data set [5]: Metabolic stability in mouse liver microsomes. In kind it is in vitro ADME. The procedure:
Metabolic Stability Study
The metabolic stability of compounds in human, dog, rat and mouse liver microsomes was performed according the experimental conditions reported below:
• a) Prepare the following 5 stock solutions: • 1. Test compound stock solutions: dilute 10 mM solution of dextromethorphan (Dtr) in DMSO, 10 mM solution of diphenhydramine (DPA) in DMSO, 10 mM solution of omeprazole (Ome) in DMSO, 10 mM solution of verapamil (Ver) in DMSO, and 10 mM of an inverse agonist compound in DMSO to 0.25 mM solution each with acetonitrile/water (70/30). • 2. Buffer: 100 mM potassium phosphate Buffer (PBS) at pH 7.4 • 3. Liver microsomes (20 mg/ml): Thaw in 37° C. water bath quickly • 4. 2000 μL: of NADPH regenerating system (1.3 mM). Place this system on ice before use:
• 5. […] The test compound concentration in the wells, measured by LC-MS/MS, represents the concentration at time=0. • f) To determine the test compound concentration when t≠0, pre-incubate the NADPH regenerating system and the incubation plate containing the remaining 320 μL of incubation mixture (microsomes protein and test compound) for 5 minutes at 37° C. • g) Start the incubation reaction by adding 80 μL NADPH regenerating system to each well containing the remaining 320 μL incubation mixture. • h) After 10 min., 30 min., and 90 min. of incubation at 37° C., transfer 100 μL of the incubation mixture (microsomes protein, test compound, and NADPH) into the wells of a stop plate pre-filled with 300 μL of the cold quench solution. Shake well. • i) Centrifuge the stop plate at 5000×g for 10 minutes. Collect and dilute the supernatant 3 times with distilled water. Sample and analyze the test compound concentration for all the wells by LC-MS/MS. Animal PK Studies via i.v. (intravenous), p.o. (orally) and s.c. (subcutaneous) administrations

[6] abbreviates: HEK293/GRLN, read-out: Activity EC50 (ghrelin inverse agonist potency).
Setting [7] is: HEK293/GHSR1a, read-out: Activity EC50/EMax: EC50 (ghrelin agonist potency).
[8] abbreviates: HEK293/GHSR1a, ghrelin 10 nM, read-out: Activity IC50 (ghrelin antagonist potency).
Setting [9] is: ghrelin inverse agonist potency, read-out: Activity EC50.
Where [10] appears, read: ghrelin agonist potency, read-out: Activity EC50/EMax.
The mark [11] stands for this setting: ghrelin antagonist potency, read-out: Activity IC50.

T1 sequence (Q92847 whole entry): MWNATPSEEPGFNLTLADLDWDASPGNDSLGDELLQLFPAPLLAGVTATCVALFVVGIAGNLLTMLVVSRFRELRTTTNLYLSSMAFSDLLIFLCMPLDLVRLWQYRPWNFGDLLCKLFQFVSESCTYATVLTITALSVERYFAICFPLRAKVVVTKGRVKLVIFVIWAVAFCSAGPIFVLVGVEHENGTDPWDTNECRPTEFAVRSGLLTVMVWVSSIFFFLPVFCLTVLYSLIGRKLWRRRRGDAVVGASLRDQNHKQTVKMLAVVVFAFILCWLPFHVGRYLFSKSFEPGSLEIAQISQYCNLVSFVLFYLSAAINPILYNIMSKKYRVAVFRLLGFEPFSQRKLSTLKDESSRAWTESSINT
T2 sequence (Q92847 whole entry): as above

As usually defined, the pIC50 is the IC50 on a negative log10 scale, so that one unit is a factor of ten. `CC(NC(=O)Nc1ccc(S(=O)(=O)Cc2ccc3c(c2)CCN(C)C3)cc1)c1cccc(F)c1F` (stereo not shown) [H1345, 1-(1-(2,3-difluorophenyl)ethyl)-3-(4-(((2-methyl-1,2,3,4-tetrahydroisoquinolin-6-yl)methyl)sulfonyl)phenyl)urea]: the pEC50 in data set [1] (setting [6]) is 8.38; in data set [2] (setting [7]), below 4.52. In data set [3] (setting [8]), the pIC50 was 8.28. Moreover, the “Metabolic Stability Study H = human” value in data set [4] worked out at 86.5 µL/min/mg. Also, the “Metabolic Stability Study M = mouse” value in data set [5] was 166.2 µL/min/mg.
On to `CC(NC(=O)Nc1ccc(S(=O)(=O)Cc2cc3c(cc2F)CNCC3)cc1)c1cccc(Cl)c1Cl` (stereo not shown) [H1385, 1-(1-(2,3-dichlorophenyl)ethyl)-3-(4-(((7-fluoro-1,2,3,4-tetrahydroisoquinolin-6-yl)methyl)sulfonyl)phenyl)urea], for which the pEC50 in data set [1] (setting [6]) is 8.19; in data set [2] (setting [7]) it was below 4.52. Further, the pIC50 in data set [3] (setting [8]) is 8.40. Also, the “Metabolic Stability Study H = human” value in data set [4] is recorded as “H = <10 M = <10 μL/min/mg”. For the same compound, the “Metabolic Stability Study M = mouse” value in data set [5] is “H = <10 M = <10 μL/min/mg”.
`CC(NC(=O)Nc1ccc(S(=O)(=O)Cc2ccc3c(c2)CNC3)cc1-c1cc[nH]n1)c1ccccc1` (stereo not shown) [H1519, 1-(4-((isoindolin-5-ylmethyl)sulfonyl)-2-(1H-pyrazol-3-yl)phenyl)-3-(1-phenylethyl)urea]: the pEC50 in data set [1] (setting [9]) was 8.34; in data set [2] (setting [10]), below 4.52. In addition, the pIC50 in data set [3] (setting [11]) was 7.92. Further, the “Metabolic Stability Study H = human” value in data set [4] is 47.3 µL/min/mg. Further, the “Metabolic Stability Study M = mouse” value in data set [5] was found to be 169.8 µL/min/mg.
For `C[C@@H](NC(=O)Nc1ccc(S(=O)(=O)Cc2ccc3c(c2)C(F)CNC3)cc1)c1cccc(Cl)c1Cl` (stereo partly drawn) [H1537, 1-((R)-1-(2,3-dichlorophenyl)ethyl)-3-(4-(((4-fluoro-1,2,3,4-tetrahydroisoquinolin-6-yl)methyl)sulfonyl)phenyl)urea], in that order: 7.74, below 4.52, 7.16, 43.2 µL/min/mg and 135.3 µL/min/mg.
Regarding `COCCN1Cc2ccc(CS(=O)(=O)c3ccc(NC(=O)NC(C)c4ccccc4)cc3)cc2C1` (stereo not shown) [H1338, 1-(4-(((2-(2-methoxyethyl)isoindolin-5-yl)methyl)sulfonyl)phenyl)-3-(1-phenylethyl)urea], the pEC50 in data set [1] (setting [6]) was 8.19; in data set [2] (setting [7]), below 4.52. The negative-log IC50 (pIC50) in data set [3] (setting [8]) is 8.12. For the same compound, in data set [4], the “Metabolic Stability Study H = human” value worked out at 106.9 µL/min/mg. In addition, in data set [5], the “Metabolic Stability Study M = mouse” value amounted to 242.1 µL/min/mg.
As for `CC(NC(=O)Nc1ccc(S(=O)(=O)Cc2ccc3c(c2)CC(C)N(C)C3)cc1)c1ccccc1` (stereo not shown) [H1407, 1-(4-(((2,3-dimethyl-1,2,3,4-tetrahydroisoquinolin-6-yl)methyl)sulfonyl)phenyl)-3-(1-phenylethyl)urea], the figures for the pEC50 in data set [1] (setting [6]) and in data set [2] (setting [7]) were 8.84 and below 4.52, respectively. In data set [3] (setting [8]), the pIC50 was 7.90. Besides, the “Metabolic Stability Study H = human” value in data set [4] worked out at 144.4 µL/min/mg. For the same compound, the “Metabolic Stability Study M = mouse” value in data set [5] was 84.1 µL/min/mg.
For `CC(NC(=O)Nc1ccc(S(=O)(=O)Cc2ccc3c(c2)CN(C)C3)cc1F)c1ccccc1` (stereo not shown) [H1317, 1-(2-fluoro-4-(((2-methylisoindolin-5-yl)methyl)sulfonyl)phenyl)-3-(1-phenylethyl)urea], the pEC50 is 7.74 in data set [1] (setting [6]) and below 4.52 in data set [2] (setting [7]). Moreover, the negative logarithm of the IC50 (pIC50) in data set [3] (setting [8]) was 7.32. In data set [4], the “Metabolic Stability Study H = human” value was determined as 96.7 µL/min/mg. In addition, the “Metabolic Stability Study M = mouse” value in data set [5] came out at 102.8 µL/min/mg.
For `C[C@H](NC(=O)Nc1ccc(S(=O)(=O)Cc2ccc3c(c2)CCN(C)CC3)cc1)c1ccccc1` [H1322, (S)-1-(4-(((3-methyl-2,3,4,5-tetrahydro-1H-benzo [d]azepin-7-yl)methyl)sulfonyl)phenyl)-3-(1-phenylethyl)urea], in that order: 7.09, below 4.52, 6.95, 129 µL/min/mg and 171.1 µL/min/mg.
